Results published in patent US11339120B2, “Phenyl derivatives as cannabinoid receptor 2 agonists” (priority 2015, dated 2022).
pEC50: −log10 of the molar value. Like-named read-outs stand apart in the source and are kept apart here.

Tests used:
human CB2 receptors = target: T1, human CB2 receptors (Homo sapiens, UniProt P34972); experiment: functional cAMP assay, CHO cells expressing human CB2; assay type: cell-based
T1 construct: expressed in transfected cells; host or cells: CHO cells
Experimental: (§1) CHO cells expressing human CB1 or CB2 receptors are seeded 17-24 hours prior to the experiment 50.000 cells per well in a black 96 well plate with flat clear bottom (Corning Costar #3904) in DMEM (Invitrogen No. 31331), 1×HT supplement, with 10% fetal calf serum and incubated at 5% CO2 and 37° C. in a humidified incubator. The growth medium was exchanged with Krebs Ringer Bicarbonate buffer with 1 mM IBMX and incubated at 30° C. for 30 min. Compounds were added to a final assay volume of 100 μl and incubated for 30 min at 30° C. Using the cAMP-Nano-TRF detection kit the assay (Roche Diagnostics) was stopped by the addition of 50 μl lysis reagent (Tris, NaCl, 1.5% Triton X100, 2.5% NP40, 10% NaN3) and 50 μl detection solutions (20 μM mAb Alexa700-cAMP 1:1, and 48 μM Ruthenium-2-AHA-cAMP) and shaken for 2 h at room temperature. The time-resolved energy transfer is measured by a TRF reader (Evotec Technologies GmbH), equipped with a ND:YAG laser as excitation source. The plate is measured twice with the excitation at 355 nm and at the emission with a delay of 100 ns and a gate of 100 ns, total exposure time 10 s at 730 (bandwidth 30 nm) or 645 nm (bandwidth 75 nm), respectively. The FRET signal is calculated as follows: FRET=T730-Alexa730-P(T645-B645) with P=Ru730-B730/Ru645-B645, where T730 is the test well measured at 730 nM, T645 is the test well measured at 645 nm, B730 and B645 are the buffer controls at 730 nm and 645 nm, respectively. cAMP content is determined from the function of a standard curve spanning from 10 μM to 0.13 nM cAMP.
(§2) EC50 values were determined using Activity Base analysis (ID Business Solution, Limited). The EC50 values for a wide range of cannabinoid agonists generated from this assay were in agreement with the values published in the scientific literature.

human CB1 receptors = target: T2, human CB1 receptors (Homo sapiens, UniProt P21554); experiment: functional cAMP assay, CHO cells expressing human CB1; assay type: cell-based
T2 construct: expressed in transfected cells; host or cells: CHO cells
T2 sequence (P21554 whole entry): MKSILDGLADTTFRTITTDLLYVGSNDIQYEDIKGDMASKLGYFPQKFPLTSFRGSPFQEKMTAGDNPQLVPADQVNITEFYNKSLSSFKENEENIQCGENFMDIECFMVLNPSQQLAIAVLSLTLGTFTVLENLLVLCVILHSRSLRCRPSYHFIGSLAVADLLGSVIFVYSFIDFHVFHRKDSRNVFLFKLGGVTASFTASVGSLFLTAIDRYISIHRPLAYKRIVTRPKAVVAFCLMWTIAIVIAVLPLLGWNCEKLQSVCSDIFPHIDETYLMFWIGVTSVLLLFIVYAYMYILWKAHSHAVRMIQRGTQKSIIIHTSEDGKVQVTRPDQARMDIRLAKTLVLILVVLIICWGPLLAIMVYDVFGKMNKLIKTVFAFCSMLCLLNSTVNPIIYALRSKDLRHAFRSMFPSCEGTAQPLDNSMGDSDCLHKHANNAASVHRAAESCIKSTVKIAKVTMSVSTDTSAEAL
Experimental: as §1, §2

[1] = functional cAMP assay, CHO cells expressing human CB2, read-out: Human CB2 EC50

T1 sequence (P34972 whole entry): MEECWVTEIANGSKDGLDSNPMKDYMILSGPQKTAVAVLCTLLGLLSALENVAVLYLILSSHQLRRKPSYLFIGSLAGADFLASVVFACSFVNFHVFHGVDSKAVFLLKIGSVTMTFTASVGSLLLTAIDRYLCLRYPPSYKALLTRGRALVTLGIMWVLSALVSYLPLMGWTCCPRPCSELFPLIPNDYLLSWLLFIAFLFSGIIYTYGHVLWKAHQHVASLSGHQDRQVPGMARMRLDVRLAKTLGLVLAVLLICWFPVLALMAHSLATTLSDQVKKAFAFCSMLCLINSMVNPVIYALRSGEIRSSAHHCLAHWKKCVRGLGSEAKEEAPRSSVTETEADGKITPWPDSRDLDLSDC

Structure (SMILES)	pEC50 (human CB2 receptors)	pEC50 (human CB1 receptors)	pEC50 (human CB2 receptors; [1])
C[C@@](CC(N)=O)(NC(=O)c1ccc(C2CC2)c(OCC(F)(F)F)c1)C1CC1 (single isomer, unassigned) [Example 35, (−)-N-[4-Amino-2-cyclopropyl-4-oxobutan-2-yl]-4-cyclopropyl-3-(2,2,2-trifluoroethoxy)benzamide]	8.07	< 5.00	
Cc1nc([C@](C)(CC2CC2)NC(=O)c2ccc(C3CC3)c(OC(C)C)c2)no1 (single isomer, unassigned) [Example 38, 4-Cyclopropyl-N-[(2S)-1-cyclopropyl-2-(5-methyl-1,2,4-oxadiazol-3-yl)propan-2-yl]-3-[(propan-2-yl)oxy]benzamide or enantiomer]	7.57	< 5.00	
Cc1ccc(C(=O)N[C@@H](CC(C)C)C(N)=O)cc1OCC1CC1 [Example 1, N-[(2S)-1-amino-4-methyl-1-oxopentan-2-yl]-3-(cyclopropylmethoxy)-4-methylbenzamide]		< 5.00	6.87
Cc1nc(C(C)(C)NC(=O)c2ccc(C)c(OCC3CC3)c2)no1 [Example 2, 3-(Cyclopropylmethoxy)-4-methyl-N-[2-(5-methyl-1,2,4-oxadiazol-3-yl)propan-2-yl]benzamide]		< 5.00	6.31
Cc1nc(C(C)(C)NC(=O)c2ccc(C3CC3)c(OCC3CC3)c2)no1 [Example 3, 4-Cyclopropyl-3-(cyclopropylmethoxy)-N-[2-(5-methyl-1,2,4-oxadiazol-3-yl)propan-2-yl]benzamide]		< 5.00	6.91
CC(C)C[C@H](NC(=O)c1ccc(C2CC2)c(OCC2CC2)c1)C(N)=O [Example 4, N^2-[4-Cyclopropyl-3-(cyclopropylmethoxy)benzoyl]-L-leucinamide]	7.74	< 5.00	
CC(C)(CO)NC(=O)c1ccc(C2CC2)c(OCC2CC2)c1 [Example 5, 4-Cyclopropyl-3-(cyclopropylmethoxy)-N-(1-hydroxy-2-methylpropan-2-yl)benzamide]		< 5.00	6.89
CC(C)(NC(=O)c1ccc(C2CC2)c(OCC2CC2)c1)c1nccs1 [Example 6, 4-Cyclopropyl-3-(cyclopropylmethoxy)-N-[2-(1,3-thiazol-2-yl)propan-2-yl]benzamide]	7.58	6.27	
CCOC(=O)C(CC)(CC)NC(=O)c1ccc(C2CC2)c(OCC2CC2)c1 [Example 7, Ethyl 2-[4-cyclopropyl-3-(cyclopropylmethoxy)benzamido]-2-ethylbutanoate]	8.84	< 5.00	
CCC(CC)(NC(=O)c1ccc(C2CC2)c(OCC2CC2)c1)C(=O)O [Example 8, 2-[4-Cyclopropyl-3-(cyclopropylmethoxy)benzamido]-2-ethylbutanoic acid]		< 5.00	5.66
CCC(CC)(NC(=O)c1ccc(C2CC2)c(OCC2CC2)c1)C(=O)N1CC(F)(F)C1 [Example 9, 4-Cyclopropyl-3-(cyclopropylmethoxy)-N-[3-(3,3-difluoroazetidine-1-carbonyl)pentan-3-yl]benzamide]	8.12	< 5.00	
Cc1nc(C(C)(C)NC(=O)c2ccc(N3CC(F)(F)C3)c(OCC3CC3)c2)no1 [Example 10, 3-(Cyclopropylmethoxy)-4-(3,3-difluoroazetidin-1-yl)-N-[2-(5-methyl-1,2,4-oxadiazol-3-yl)propan-2-yl]benzamide]	7.48	< 5.00	
CC(C)(NC(=O)c1ccc(N2CC(F)(F)C2)c(OCC2CC2)c1)c1noc(N)n1 [Example 11, N-[2-(5-Amino-1,2,4-oxadiazol-3-yl)propan-2-yl]-3-(cyclopropylmethoxy)-4-(3,3-difluoroazetidin-1-yl)benzamide]	7.01	< 5.00	
CNC(=O)[C@H](CC(C)C)NC(=O)c1ccc(N2CC(F)(F)C2)c(OCC2CC2)c1 [Example 12, N^2-[3-(cyclopropylmethoxy)-4-(3,3-difluoroazetidin-1-yl)benzoyl]-N-methyl-L-leucinamide]	7.18	< 5.00	
CC(C)C[C@@H](CO)NC(=O)c1ccc(N2CC(F)(F)C2)c(OCC2CC2)c1 [Example 13, 3-(Cyclopropylmethoxy)-4-(3,3-difluoroazetidin-1-yl)-N-[(2S)-1-hydroxy-4-methylpentan-2-yl]benzamide]	7.66	< 5.00	
CC(C)(C)c1noc(-c2ccc(C3CC3)c(OCC3CC3)c2)n1 [Example 14, 3-tert-Butyl-5-[4-cyclopropyl-3-(cyclopropylmethoxy)phenyl]-1,2,4-oxadiazole]	7.63	< 5.00	
NC(=O)CC1(NC(=O)c2ccc(C3CC3)c(OCC3CC3)c2)COC1 [Example 15, N-[3-(2-Amino-2-oxoethyl)oxetan-3-yl]-4-cyclopropyl-3-(cyclopropylmethoxy)benzamide]	7.47	< 5.00	
NC(=O)CC1(NC(=O)c2ccc(C3CC3)c(OCC3CC3)c2)CS(=O)(=O)C1 [Example 16, N-[3-(2-Amino-2-oxoethyl)-1,1-dioxothietan-3-yl]-4-cyclopropyl-3-(cyclopropylmethoxy)benzamide]	8.58	< 5.00	
NC(=O)[C@@H]1CC(F)(F)CN1C(=O)c1ccc(C2CC2)c(OCC2CC2)c1 [Example 17, 1-[4-Cyclopropyl-3-(cyclopropylmethoxy)benzoyl]-4,4-difluoro-L-prolinamide]	9.29	< 5.00	
CCC(CC)(NC(=O)c1ccc(C2CC2)c(OCC2CC2)c1)C(N)=O [Example 18, N-(3-Carbamoylpentan-3-yl)-4-cyclopropyl-3-(cyclopropylmethoxy)benzamide]		< 5.00	6.63
CNC(=O)[C@H](CC(C)C)NC(=O)c1ccc(C2CC2)c(OCC2CC2)c1 [Example 19, N^2-[4-cyclopropyl-3-(cyclopropylmethoxy)benzoyl]-N-methyl-L-leucinamide]	7.71	< 5.00	
Cc1nc([C@@](C)(CS(C)(=O)=O)NC(=O)c2ccc(C3CC3)c(OCC3CC3)c2)no1 [Example 20, 4-Cyclopropyl-3-(cyclopropylmethoxy)-N-[(2S)-1-(methanesulfonyl)-2-(5-methyl-1,2,4-oxadiazol-3-yl)propan-2-yl]benzamide]	7.50	< 5.00	
Cc1nc([C@](C)(CS(C)(=O)=O)NC(=O)c2ccc(C3CC3)c(OCC3CC3)c2)no1 [Example 21, 4-Cyclopropyl-3-(cyclopropylmethoxy)-N-[(2R)-1-(methanesulfonyl)-2-(5-methyl-1,2,4-oxadiazol-3-yl)propan-2-yl]benzamide]	6.53	< 5.00	
NC(=O)C1CC2(CC2)CN1C(=O)c1ccc(C2CC2)c(OCC2CC2)c1 (stereo not drawn) [Example 22, 5-[4-Cyclopropyl-3-(cyclopropylmethoxy)benzoyl]-5-azaspiro[2.4]heptane-6-carboxamide]	7.55	< 5.00	
CC(C)(C)c1nc(-c2ccc(C3CC3)c(OCC(F)(F)F)c2)no1 [Example 23, 5-tert-Butyl-3-[4-cyclopropyl-3-(2,2,2-trifluoroethoxy)phenyl]-1,2,4-oxadiazole]	7.59	< 5.00	
CC(C)(C)c1nc(-c2ccc(C3CC3)c(OCC(F)F)c2)no1 [Example 24, 5-tert-Butyl-3-[4-cyclopropyl-3-(2,2-difluoroethoxy)phenyl]-1,2,4-oxadiazole]	7.81	< 5.00	
Cc1nc([C@@](C)(CC2CC2)NC(=O)c2ccc(C3CC3)c(OCC(F)(F)F)c2)no1 [Example 25, (−)-4-Cyclopropyl-N-[1-cyclopropyl-2-(5-methyl-1,2,4-oxadiazol-3-yl)propan-2-yl]-3-(2,2,2-trifluoroethoxy)benzamide]	7.39	< 5.00	
Cc1nc([C@](C)(CC2CC2)NC(=O)c2ccc(C3CC3)c(OCC(F)(F)F)c2)no1 [Example 26, (+)-4-Cyclopropyl-N-[1-cyclopropyl-2-(5-methyl-1,2,4-oxadiazol-3-yl)propan-2-yl]-3-(2,2,2-trifluoroethoxy)benzamide]	7.44	< 5.00	
NC(=O)CC1(NC(=O)c2ccc(C3CC3)c(OCC(F)(F)F)c2)CS(=O)(=O)C1 [Example 27, N-[3-(2-Amino-2-oxoethyl)-1,1-dioxothietan-3-yl]-4-cyclopropyl-3-(2,2,2-trifluoroethoxy)benzamide]	7.01	< 5.00	
Cc1nc([C@](C)(CS(C)(=O)=O)NC(=O)c2ccc(C3CC3)c(OCC(F)(F)F)c2)no1 [Example 28, 4-Cyclopropyl-N-[(2R)-1-(methanesulfonyl)-2-(5-methyl-1,2,4-oxadiazol-3-yl)propan-2-yl]-3-(2,2,2-trifluoroethoxy)benzamide]	7.10	< 5.00	
